Data: patent publication US10568320B2, “Biologically-based control methods for insect pests” (The United States of America, as represented by the …, priority 2017, dated 2020)
Entries after “also recorded” stand apart in the source; their conditions may differ.

How the values were obtained:
[1] = system: mature female alates (MFAs); assay: Injection into MFA abdomen: ovariole development and egg-laying; assay type: in vivo, Solenopsis invicta; details: 100 nL of a 1.0% saline solution (1 microgram) injected
Source text: Two measures of ovariole development were used. […] Measurement of ovariole area in the same samples gave a quantitative measure of ovariole development. […] Within the context of a colony this effect would be in direct conflict with the colony queen. Eggs laid would not be fertile and therefore develop into males. Queen pheromone is also produced by […], which would act to reduce the fecundity of the colony queen. For example, in polygyne colonies the higher the number of queens the lower is the mean egg-laying rate/queen due to the presence of excess queen pheromone (see Vander Meer, R. K., et al. (1992), A comparison of queen oviposition rates from monogyne and polygyne fire ant, Solenopsis invicta, colonies.

[2] = system: MFA mid- and hind-gut
[3] = system: female sexuals (alates); assay: Worker attraction to poison sac extracts of dealates (queen pheromone bioassay); assay type: in vivo, Solenopsis invicta; details: extracts from dealates of fed sub-colonies
[4] = system: monogyne queenright colonies; assay: Feeding of monogyne queenright colonies: worker and queen mortality; assay type: in vivo, Solenopsis invicta; details: 1% in 10% sucrose, 27 d; for colonies considered dead: five colonies
Source text: FIGS. 24A and 24B show results for the sucrose (10%) control and two treatments, tyramine (1%) and N-methyl-tyramine (1%), both dissolved in 10% sucrose. The control and test colonies were monogyne queenright colonies, containing a single queen, brood and workers started in the laboratory from newly mated queens collected in the field. The mean number of workers per colony was 8,400±400. […] Previous experiments used queenless sub-colonies, rather than the queenright colonies in these experiments. The mortality effect on colony queens was unexpected, since worker fire ants are completely sterile and cannot reproduce even if the queen dies. Therefore, when the reproductive queen dies no more brood is produced and the colony is no longer functional—it is considered dead. […] Therefore, 80% of the treated colonies were considered dead.

[5] = Solubility in aqueous solution; assay type: physicochemical; details: for solubility maximum: solution
[6] = system: fire ant workers; assay: Example 14 feeding experiments: fire ant worker mortality
[7] = system: 4th instar sexual larvae; assay: Direct (hand) feeding of 4th instar sexual larvae; assay type: in vivo, Solenopsis invicta; details: for mortality / sickness of 4th instar sexual larvae: fed once, 80 nL max of about 1% w/v in 10% sucrose, N=10
Source text: It was concluded that the 4th instar larvae are refractory to the mortality effects observed when workers are fed tyramine.

[8] = system: mature female alates (MFAs); assay: Injection into MFA abdomen: wing loss (dealation); assay type: in vivo, Solenopsis invicta; details: 100 nL of a 1.0% saline solution injected into the MFA abdomen
Source text: While the MFAs are in their mother colony, the queen releases primer pheromones that inhibit wing loss (sometimes referred to herein as “dealation”), development of ovaries, wing muscle histolysis, and pheromone production. This release prevents reproductive/resource competition between the MFAs and the mother queen. If MFAs are removed from the colony, they become disinhibited and eventually (e.g., within days) lose their wings and start the physiological processes (e.g., wing loss and ovariole development). MFA also become disinhibited when they leave the colony on a mating flight; however, in this case the now NMQs lose their wings within minutes of landing and initiate the above mentioned physiological/biochemical changes (e.g., wing loss and ovariole development). We know from previous experiments that mating is the trigger, not mating flight initiation or the act of flying (Burns, S. N., et al. (2002) Identification and action of juvenile hormone III from sexually mature alate females of the red imported fire ant, Solenopsis invicta. Journal of Insect Physiology 48: 357-365; Burns, S. N., et al. (2005), The effect of age and social environment on dealation in Solenopsis invicta (Hymenoptera: Formicidae) female […]. […] Burns, S. N., et al. […]

[9] = system: fire ant workers; assay: Droplet feeding of worker groups: mortality over 24 h and concentration series; assay type: in vivo; details: for worker mortality compared with sucrose control (Kaplan-Meier, Log-rank): 24 h
Experimental: To determine how quickly the tyramine and acetyl tyramide act, 60 workers were allowed to feed on tyramine (FIG. 8A) or acetyl tyramide (FIG. 8B) dissolved at about 1% in 10% sucrose solution. The control and treatments were presented to the worker ants as droplets on phase separation filter paper. Consumption of the droplets was readily observed. Mortality was monitored for each of the first 10 hours and then at 24 hours. […] Tyramine and acetyl tyramide had >50% and >40% mortality, respectively within the 24 h time period of the experiment. […] This distribution is a cornerstone of pest ant baits. To test this hypothesis, a similar experiment was conducted. Workers were allowed to feed on the treatment and control solutions and were then transferred to another container with unfed nestmates. In all cases, it was observed that the treatment fed workers regurgitated the treatment and sucrose solutions to their unfed nestmates through the classic mechanism of trophallaxis (data not shown). Thus, normal worker behavior necessary for bait development was not affected by the treatments under these experimental conditions.
One criteria for an effective pest ant Active Ingredient (AI) is maintenance of activity over 1-3 orders of magnitude, because as the bait is distributed from one ant to another the material is diluted. The AI must maintain activity until all individuals in the colony (e.g., workers, brood and sexuals including the queen) have received the AI. […] Journal of Economic Entomology 99(5): 1739-1748). The 0.01% had >24 h delay in mortality.

[10] = system: fire ant workers; assay: Species specificity droplet feeding: fire ant workers; assay type: in vivo, Solenopsis invicta; details: 1% in 10% sucrose, 24 h
Source text: (§1) To evaluate the effect of tyramine on another pest ant species triplicate groups of 20 Tawny crazy ant (Nylanderia fulva) workers and triplicate groups of 20 fire ant workers were setup. Corresponding controls for both pest ant species were workers fed 10% sucrose solution. The treatment was 1% tyramine in 10% sucrose (weight-to-volume). The control and treatments were presented to the worker ants as droplets on phase separation filter paper. Consumption of the droplets was readily observed. Mortality was monitored for each of the first 10 hours and then at 24 hours. The results are shown as mean±standard error of accumulated mortality for controls and treatments at 24 h in FIG. 13. […] These unexpected results illustrate that the toxicity effects of tyramine on fire ants are not automatically extended to other ant species.

[11] = system: fire ant workers; assay: Five biogenic amines fed to fire ant workers as droplets; assay type: in vivo, Solenopsis invicta; details: 1% in 10% sucrose, 48 h
Experimental: Tyramine is one of five biogenic amines that may be found in insects (e.g., dopamine, histamine, octopamine, serotonin, and tyramine). The experiment in this example tests whether fire ant worker mortality effects observed with tyramine may be a general result of the ants ingesting greater than normal amounts of a biogenic amine. To test this hypothesis groups of 20 fire ant worker ants were starved for 24 hours and fed a 1% (w/v) biogenic amine in 10% sucrose solution. Treatments and sucrose were presented to the worker ants as a 25 microliter droplet on a 2 cm^2 piece of silicon treated filter paper. Each treatment and control were performed in triplicate for a total of 60 worker ants per treatment and control. Mortality was monitored for the first 7-8 h after introduction of the sucrose solutions, then at 24 h. The feeding/monitoring sequence was repeated for another 24 h period for a total of 48 h. The results are shown in FIG. 12A-12B in the form of Kaplan-Meier mortality curves.

[12] = system: female alates and workers; assay: Feeding of queenless colony sub-units with immature female alates; assay type: in vivo, Solenopsis invicta
Source text: In this example, whether feeding tyramine and/or the tyramides to colony sub-units that contained female […] would result in inappropriate wing loss, as well as ovariole development. Wing muscle histolysis, and queen pheromone production normally accompanies wing loss (see Vargo, E. L. (1998), Primer pheromones in ants, pp. 293-313. In […]. Breed, […] and M. L. Winston (eds.), Pheromone communication in social insects ants, wasps, bees, and termites. […], Boulder, Colo.). […] The data supports and confirms that workers are feeding the treatments to the female […], which in turn stimulates wing loss in the […]. FIG. 11B is from the same experiment confirming the worker mortality effects of the tyramine and tyramide treatments.

[13] = system: Tawny crazy ant (Nylanderia fulva) workers; assay: Species specificity droplet feeding: tawny crazy ant workers; assay type: in vivo; details: 1% in 10% sucrose, 24 h
Source text: as §1

Row | Compound | ovariole development, ovariole area, compared to controls [1] | ovariole development, ovary rank 1-4, compared to the control [1] | degradation of the tyramide [2] | worker attraction to poison sac extracts versus N,N-dimethyl tyramine treatment and controls [3] | % worker mortality at the end of the experiment versus control [4] | fate of colony queens (five replicates) [4] | queen mortality at the end of the experiment versus control [4] | colonies considered dead [4] | solubility maximum [5] | fire ant worker mortality versus 10% sucrose control ([6]; 0.01% in 10% sucrose) | fire ant worker mortality versus 10% sucrose control ([6]; 0.1% in 10% sucrose) | fire ant worker mortality versus 10% sucrose control ([6]; 1.0% in 10% sucrose) | mortality / sickness of 4th instar sexual larvae [7] | dealation (wing loss) compared to the control [8] | worker mortality compared with sucrose control (Kaplan-Meier, Log-rank) ([9]; about 1% in 10% sucrose) | also measured
1 | CCCCCC(=O)NCCc1ccc(O)cc1 [hexanoyl tyramide] | not hexanoyl tyramide caused significant ovariole development | significant ovariole development | No degradation of the tyramide was observed | – | – | – | – | – | – | – | – | – | – | – | – | –
2 | CNCCc1ccc(O)cc1 [N-methyl-tyramine (free base), N-methyl-tyramine] | – | – | – | significantly different from those from the N,N-dimethyl tyramine treatment and the sucrose and hexane controls | significantly different from the corresponding controls | all queen replicates (5) died | significantly different from the corresponding controls | 100% | 1% | significantly different from the 10% sucrose control | significantly different from the 10% sucrose control | significantly different from the 10% sucrose control | – | – | – | worker attraction to poison sac extracts compared among active treatments [3]: significantly greater worker attraction than poison sac extracts from tyramine treatments; mortality at the two lower concentrations (0.1 and 0.01%) versus the 1.0% concentration ([6]; in 10% sucrose): significantly higher mortality than the 1.0% concentration
3 | acetyl tyramide | caused significant ovariole development | significant ovariole development | No degradation of the tyramide was observed | – | – | – | – | – | – | – | – | – | none of the acetyl tyramide treatments died or appeared sick | significantly faster and inappropriate dealation | significantly greater worker mortality than the sucrose control | worker mortality within the 24 h time period ([9]; about 1% in 10% sucrose, droplets, 60 workers): > 40%
4 | NCCc1ccc(O)cc1 [tyramine] | caused significant ovariole development | significant ovariole development | – | significantly different from those from the N,N-dimethyl tyramine treatment and the sucrose and hexane controls | significantly different from the corresponding controls | one colony queen survived out of five | significantly different from the corresponding controls | 80% | 1% | significantly different from the 10% sucrose control | significantly different from the 10% sucrose control | significantly different from the 10% sucrose control | All sexual larvae fed tyramine died by day 5 | significantly faster and inappropriate dealation | significantly greater worker mortality than the sucrose control | accumulated worker mortality compared to sucrose control [10]: significant mortality compared to its sucrose control; worker mortality, tyramine HCl versus tyramine free base [11]: not significantly different; wing loss of female alates ([12]; fed in 10% sucrose continuously for 7 days, via workers): rapid wing loss; ovariole development of female alates fed by workers ([12]; sub-colonies): commencement of ovariole development; amount fed at which fire ant sexual larvae die ([7]; in vivo): 0.8 micrograms; water solubility [5]: water soluble; accumulated worker mortality compared to sucrose control [13]: did not have significant mortality compared to its sucrose control; also recorded: no effect on crazy ant workers; delay in mortality ([9]; 0.01% concentration): > 24 h; mortality delay ([9]; 0.1% concentration): ≥ 5 h; mortality delay ([9]; 1.0% concentration): ≥ 5 h; worker mortality at a dilution factor of 100 ([9]; about 0.01% (weight-to-volume)): significant worker mortality; worker mortality within the 24 h time period ([9]; in vivo): > 50%; concentration of solution fed to workers that led to mortality after 7 days ([6]; estimated from feeding studies): 0.01 micrograms per microliter
